The text below walks through data of ChEMBL document CHEMBL4130472, “Synthesis of naphthazarin derivatives and identification of novel thioredoxin reductase inhibitor as potential anticancer agent” (Eur J Med Chem, 2017).

One test has as its system HL-60. Put plainly: Cytotoxicity in human HL60 cells assessed as cell viability at 20 uM incubated for 48 hrs by MTT assay. To be noted: HL-60, 48 h, read-out: Activity. The test is classed as functional.
As to `O=C1C=C(NCCO)C(=O)c2c(O)ccc(O)c21`, the viability at 20 µM came out at 50.3%. In the case of `O=C1C=C(Nc2ccccc2)C(=O)c2c(O)ccc(O)c21`, the viability at 20 µM stood at 59.7%. In the case of `CCC(C)NC1=CC(=O)c2c(O)ccc(O)c2C1=O` (configuration not stated), the viability at 20 µM amounted to 57%.

`CCNC1=CC(=O)c2c(O)ccc(O)c2C1=O`: the viability at 20 µM was determined as 56.4%.

As to `O=C1C=CC(=O)c2c(O)ccc(O)c21` [NAPHTHAZALIN], the viability at 20 µM stood at 0%. `O=C1C=C(N2CCCC2)C(=O)c2c(O)ccc(O)c21`: the viability at 20 µM came out at 97.2%. For `O=C1C=C(N2CCOCC2)C(=O)c2c(O)ccc(O)c21`, the viability at 20 µM was determined as 50.1%. As for `O=C1C=CC(=O)c2c(Cl)ccc(O)c21`, the viability at 20 µM worked out at 23.1%.

`CCCNC1=CC(=O)c2c(O)ccc(O)c2C1=O`: the viability at 20 µM worked out at 59.4%.

For the compound `CCCCCCCCNC1=CC(=O)c2c(O)ccc(O)c2C1=O`, the viability at 20 µM amounted to 61.1%. In the case of `O=C1C=C(NCc2ccccc2)C(=O)c2c(O)ccc(O)c21`, the viability at 20 µM was 54.6%. Take `CNC1=CC(=O)c2c(O)ccc(O)c2C1=O`: the viability at 20 µM was 63%. Take `CCCCNC1=CC(=O)c2c(O)ccc(O)c2C1=O`: the viability at 20 µM was 59.2%. For `CC(C)CCNC1=CC(=O)c2c(O)ccc(O)c2C1=O`, the viability at 20 µM stood at 54.3%. As for `O=C1C=C(N2CCCCC2)C(=O)c2c(O)ccc(O)c21`, the viability at 20 µM is 54.9%.

The next test deals with HL-60. Briefly: Cytotoxicity in human HL60 cells assessed as reduction in cell viability incubated for 48 hrs by MTT assay. The test is classed as functional, cell-based. Particulars: HL-60, 48 h. In general terms: Tetrazolium assays rely on reduction of a dye to a coloured formazan, in cell work by metabolically active cells.
In general, IC50 refers to the concentration at which inhibition is half-maximal. On to `O=C1C=CC(=O)c2c(O)ccc(O)c21` [NAPHTHAZALIN], for which the IC50 is 0.93 µM.

In the next test the test system is HL-60. Put plainly: Cytotoxicity in human HL60 cells assessed as reduction in cell viability incubated for 72 hrs by MTT assay. The test is classed as functional, cell-based. To be noted: HL-60, 72 h.
`O=C1C=CC(=O)c2c(O)ccc(O)c21` [NAPHTHAZALIN]: the half-maximal inhibitory concentration (IC50) came out at 0.8 µM.
